Results on 31 compounds are retold here after ChEMBL document CHEMBL5154689, “Discovery of novel β-carboline derivatives as selective AChE inhibitors with GSK-3β inhibitory property for the treatment of Alzheimer's disease” (Eur J Med Chem, 2022).

The target of one series is Cholinesterase (Equus caballus, UniProt P81908). Nature of the series: Inhibition of equine serum BChE using butyrylthiocholine iodide as substrate preincubated with enzyme for 20 mins followed by substrate addition and measured after 20 mins by Ellman's method. The format is cell-free.
The target in series [1] is T1, Glycogen synthase kinase-3 beta (Homo sapiens, UniProt P49841). Kind of series: Inhibition of GSK3-beta (unknown origin) incubated for 60 mins by ATP-Glo luminescent assay.
Target sequence in this assay (P49841 whole entry): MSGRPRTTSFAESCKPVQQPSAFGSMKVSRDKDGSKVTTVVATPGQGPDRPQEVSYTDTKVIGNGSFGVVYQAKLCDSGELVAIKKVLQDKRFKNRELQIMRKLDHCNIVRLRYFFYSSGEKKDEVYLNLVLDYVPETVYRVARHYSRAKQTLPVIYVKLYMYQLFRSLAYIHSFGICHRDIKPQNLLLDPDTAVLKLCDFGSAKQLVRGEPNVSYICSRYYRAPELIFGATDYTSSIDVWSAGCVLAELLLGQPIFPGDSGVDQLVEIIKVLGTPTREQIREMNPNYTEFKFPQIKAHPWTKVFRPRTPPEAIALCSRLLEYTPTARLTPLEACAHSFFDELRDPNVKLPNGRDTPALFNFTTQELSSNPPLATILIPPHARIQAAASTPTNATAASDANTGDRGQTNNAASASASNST
The next series has as its target Acetylcholinesterase (Electrophorus electricus, UniProt O42275). Nature of the series: Inhibition of electric eel AChE using acetylthiocholine iodide as substrate preincubated with enzyme for 20 mins followed by substrate addition and measured after 20 mins by Ellman's method.
The target of series [2] is Cholinesterase (Equus caballus) (UniProt P81908). Kind of series: Inhibition of equine serum BChE at 50 uM using butyrylthiocholine iodide as substrate preincubated with enzyme for 20 mins followed by substrate addition and measured after 20 mins by Ellman's method. Type of series: cell-free. As to conditions: time 40.0 min.
Series [3] in a line: Selectivity index, ratio of IC50 for equine serum BChE to IC50 for electric eel AChE.
Series [4] addresses T1, Glycogen synthase kinase-3 beta. Nature of the series: Inhibition of GSK3-beta (unknown origin) at 10 uM incubated for 60 mins by ATP-Glo luminescent assay.
Target sequence in this assay (P49841 whole entry, looked up): as the sequence (P49841 whole entry) above
Another series deals with SH-SY5Y. Kind of series: Cytotoxicity against human SH-SY5Y cells assessed as reduction in cell viability at 10 uM incubated for 48 hrs by MTT assay. The format is toxicity, cell-based.
The next series has as its system L02. Nature of the series: Cytotoxicity against human HL7702 cells assessed as reduction in cell viability at 10 uM incubated for 48 hrs by MTT assay. Type of series: toxicity, cell-based. As to conditions: l02, 48 h.

Sequence of Acetylcholinesterase (O42275 whole entry): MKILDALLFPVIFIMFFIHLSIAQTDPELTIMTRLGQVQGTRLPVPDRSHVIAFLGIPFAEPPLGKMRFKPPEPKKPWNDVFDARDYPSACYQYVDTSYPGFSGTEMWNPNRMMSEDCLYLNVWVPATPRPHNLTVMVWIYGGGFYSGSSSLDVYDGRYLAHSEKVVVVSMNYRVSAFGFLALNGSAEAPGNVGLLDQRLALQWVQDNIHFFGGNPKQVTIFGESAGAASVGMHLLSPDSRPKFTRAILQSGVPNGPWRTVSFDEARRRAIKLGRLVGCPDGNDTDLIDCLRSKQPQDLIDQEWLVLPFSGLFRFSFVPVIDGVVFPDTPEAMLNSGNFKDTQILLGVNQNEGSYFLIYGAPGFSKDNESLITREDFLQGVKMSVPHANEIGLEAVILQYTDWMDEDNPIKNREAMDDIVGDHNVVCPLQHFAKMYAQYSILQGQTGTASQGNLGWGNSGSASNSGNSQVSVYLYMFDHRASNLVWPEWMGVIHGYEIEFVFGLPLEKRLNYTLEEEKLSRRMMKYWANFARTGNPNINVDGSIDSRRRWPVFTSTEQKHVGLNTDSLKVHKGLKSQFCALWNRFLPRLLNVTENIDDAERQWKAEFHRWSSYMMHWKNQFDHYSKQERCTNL
Sequence of Cholinesterase (P81908 whole entry): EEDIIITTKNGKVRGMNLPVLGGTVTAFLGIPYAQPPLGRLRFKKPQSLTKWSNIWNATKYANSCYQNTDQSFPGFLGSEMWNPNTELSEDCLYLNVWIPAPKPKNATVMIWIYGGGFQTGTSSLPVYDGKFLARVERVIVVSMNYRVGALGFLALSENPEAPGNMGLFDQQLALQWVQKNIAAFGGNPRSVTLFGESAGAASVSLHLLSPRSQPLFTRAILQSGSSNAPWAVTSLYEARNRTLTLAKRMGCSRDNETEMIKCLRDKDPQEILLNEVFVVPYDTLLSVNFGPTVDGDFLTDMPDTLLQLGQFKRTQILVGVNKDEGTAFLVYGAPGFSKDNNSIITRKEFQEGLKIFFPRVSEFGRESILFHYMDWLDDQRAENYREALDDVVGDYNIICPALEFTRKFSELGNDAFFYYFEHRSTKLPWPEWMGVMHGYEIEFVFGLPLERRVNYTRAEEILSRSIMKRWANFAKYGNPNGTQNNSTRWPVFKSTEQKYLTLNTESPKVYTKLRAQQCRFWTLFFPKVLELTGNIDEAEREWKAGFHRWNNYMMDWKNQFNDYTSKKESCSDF
Sequence of Cholinesterase (Equus caballus) (P81908 whole entry): as above

On to `COC(=O)c1ccc2c(c1)[nH]c1c(NC(=O)C3CC3)nccc12`, for which the half-inhibitory concentration (IC50) against Cholinesterase is more than 20 µM; in series [1], 0.07 µM; against Acetylcholinesterase, more than 20 µM.
For `O=C(NCC1CCN(Cc2ccc(C(F)(F)F)cc2)CC1)c1ccc2c(c1)[nH]c1c(NC(=O)C3CC3)nccc12`, the inhibition in series [2] was less than 10%; in series [4] it was 59.5%. For the same compound, the Ratio IC50 in series [3] is more than 4.81. Moreover, the IC50 at Cholinesterase is more than 50 µM; against Acetylcholinesterase, 10.4 µM.
In the same order, the values of `O=C(NCC1CCN(Cc2cccc([N+](=O)[O-])c2)CC1)c1ccc2c(c1)[nH]c1c(NC(=O)C3CC3)nccc12` are less than 10%, 52.1%, more than 24.4, more than 50 µM and 2.05 µM.
With `O=C(NCCC1CCN(Cc2cccc(F)c2)CC1)c1ccc2c(c1)[nH]c1c(NC(=O)C3CC3)nccc12`, the inhibition in series [2] came to 65.4%; in series [4], 47.8%. The Ratio IC50 in series [3] was more than 50.1. The IC50 was determined as 19.9 µM against Cholinesterase and 0.96 µM at Acetylcholinesterase.
In the same order, the values of `O=C(NC1CCN(Cc2ccc(C(F)(F)F)cc2)CC1)c1ccc2c(c1)[nH]c1c(NC(=O)C3CC3)nccc12` are less than 10%, 71.9%, more than 3.6, more than 50 µM and 13.9 µM.
For `Cc1ccc(CN2CCC(CCNC(=O)c3ccc4c(c3)[nH]c3c(NC(=O)C5CC5)nccc34)CC2)cc1`, the inhibition in series [2] amounted to 44.3%; in series [4] it was 62.7%. Besides, the Ratio IC50 in series [3] is more than 18.2. For the same compound, the IC50 at Cholinesterase was more than 50 µM; against Acetylcholinesterase, 2.74 µM.
For `Cc1ccc(CN2CCC(NC(=O)c3ccc4c(c3)[nH]c3c(NC(=O)C5CC5)nccc34)CC2)cc1`, the inhibition in series [2] is 23%; in series [4] it was 10.5%. The Ratio IC50 in series [3] was more than 5.84. Moreover, the IC50 on Cholinesterase was more than 50 µM; against Acetylcholinesterase it was 8.56 µM.
Regarding `O=C(NC1CCN(Cc2c(Cl)cccc2Cl)CC1)c1ccc2c(c1)[nH]c1c(NC(=O)C3CC3)nccc12`, the inhibition in series [2] was less than 10%; in series [4] it was 21.9%. Also, the Ratio IC50 in series [3] was more than 24.9. The concentration for half-maximal inhibition (IC50) is more than 50 µM at Cholinesterase and 2.01 µM at Acetylcholinesterase.
Taken in the same sequence, the figures for `O=C(NCCC1CCN(Cc2ccccc2)CC1)c1ccc2c(c1)[nH]c1c(NC(=O)C3CC3)nccc12` were 68.3%, -2.01%, 30.2, 23.6 µM and 0.78 µM.
Taken in the same sequence, the figures for `O=C(NCC1CCN(Cc2ccc(Cl)cc2)CC1)c1ccc2c(c1)[nH]c1c(NC(=O)C3CC3)nccc12` were less than 10%, 11.7%, more than 2.55, more than 50 µM and 19.6 µM.
With `O=C(NC1CCN(Cc2cccc(F)c2)CC1)c1ccc2c(c1)[nH]c1c(NC(=O)C3CC3)nccc12`, the inhibition in series [2] amounted to 30.8%; in series [4], 79.8%. The Ratio IC50 in series [3] was more than 22.5. For the same compound, the figures for the IC50 on Cholinesterase and on Acetylcholinesterase were more than 50 µM and 2.22 µM, respectively.
Taken in the same sequence, the figures for `O=C(NCCC1CCN(Cc2ccc(F)cc2)CC1)c1ccc2c(c1)[nH]c1c(NC(=O)C3CC3)nccc12` were 68.7%, 14.9%, 16.8, 20.3 µM and 1.21 µM.
As to `O=C(NC1CCN(Cc2ccc(F)cc2)CC1)c1ccc2c(c1)[nH]c1c(NC(=O)C3CC3)nccc12`, the inhibition in series [2] came to 36.9%; in series [4], 74.6%. The Ratio IC50 in series [3] is more than 23.4. The IC50 was more than 50 µM on Cholinesterase and 2.14 µM against Acetylcholinesterase.
For the compound `O=C(NC1CCN(Cc2cc(F)cc(F)c2)CC1)c1ccc2c(c1)[nH]c1c(NC(=O)C3CC3)nccc12`, the values for the inhibition in series [2] and in series [4] were less than 10% and 41.9%, respectively. The Ratio IC50 in series [3] was more than 1.49. Further, the IC50 on Cholinesterase was more than 50 µM; against Acetylcholinesterase, 33.5 µM.
`O=C(NCCC1CCN(Cc2ccc(C(F)(F)F)cc2)CC1)c1ccc2c(c1)[nH]c1c(NC(=O)C3CC3)nccc12`: the inhibition was less than 10% in series [2] and 73.8% in series [4]. Also, the Ratio IC50 in series [3] is more than 1.6. Besides, the Activity result in the series with SH-SY5Y and in the series on L02 was “Toxic” each time. Besides, the IC50 was more than 50 µM on Cholinesterase and 31.2 µM against Acetylcholinesterase.
With `O=C(NC1CCN(Cc2ccccc2)CC1)c1ccc2c(c1)[nH]c1c(NC(=O)C3CC3)nccc12`, the inhibition in series [2] turned out to be 52.6%; in series [4], 63.3%. For the same compound, the Ratio IC50 in series [3] was found to be 16.6. Also, the IC50 against Cholinesterase is 38.8 µM; on Acetylcholinesterase it was 2.33 µM.
Taken in the same sequence, the figures for `O=C(NCC1CCN(Cc2cccc(F)c2)CC1)c1ccc2c(c1)[nH]c1c(NC(=O)C3CC3)nccc12` were 32.6%, 11.1%, more than 22.3, more than 50 µM and 2.24 µM.
Regarding `Cc1ccc(CN2CCC(CNC(=O)c3ccc4c(c3)[nH]c3c(NC(=O)C5CC5)nccc34)CC2)cc1`, the inhibition is 15.3% in series [2] and 46.4% in series [4]. The Ratio IC50 in series [3] was more than 16.6. In addition, the IC50 at Cholinesterase is more than 50 µM; against Acetylcholinesterase, 3.02 µM.
`O=C(NCCC1CCN(Cc2cc(F)cc(F)c2)CC1)c1ccc2c(c1)[nH]c1c(NC(=O)C3CC3)nccc12`: the figures for the inhibition in series [2] and in series [4] were less than 10% and 2.71%, respectively. In addition, the Ratio IC50 in series [3] is more than 8.62. Also, the IC50 against Cholinesterase was more than 50 µM; on Acetylcholinesterase it was 5.8 µM.
Taken in the same sequence, the figures for `O=C(NC1CCN(Cc2cccc([N+](=O)[O-])c2)CC1)c1ccc2c(c1)[nH]c1c(NC(=O)C3CC3)nccc12` were 20.1%, 78%, more than 18.1, more than 50 µM and 2.77 µM.
Taken in the same sequence, the figures for `O=C(NCC1CCN(Cc2ccccc2F)CC1)c1ccc2c(c1)[nH]c1c(NC(=O)C3CC3)nccc12` were 55.6%, 42.1%, 40.7, 34.2 µM and 0.84 µM.
Consider `O=C(NCC1CCN(Cc2cc(F)cc(F)c2)CC1)c1ccc2c(c1)[nH]c1c(NC(=O)C3CC3)nccc12`, for which the inhibition in series [2] came to 10.4%. In series [3], the Ratio IC50 is more than 9.92. Besides, the IC50 against Cholinesterase is more than 50 µM; at Acetylcholinesterase, 5.04 µM.
For the compound `O=C(NC1CCN(Cc2ccc(Cl)cc2)CC1)c1ccc2c(c1)[nH]c1c(NC(=O)C3CC3)nccc12`, the inhibition in series [2] is less than 10%; in series [4], 57.9%. The Ratio IC50 in series [3] is more than 2.64. Besides, the results for the IC50 at Cholinesterase and against Acetylcholinesterase were more than 50 µM and 18.9 µM, respectively.
In the same order, the values of `O=C(NCC1CCN(Cc2c(Cl)cccc2Cl)CC1)c1ccc2c(c1)[nH]c1c(NC(=O)C3CC3)nccc12` are less than 10%, 11.3%, more than 147, more than 50 µM and 0.34 µM.
In the same order, the values of `O=C(NCC1CCN(Cc2ccccc2)CC1)c1ccc2c(c1)[nH]c1c(NC(=O)C3CC3)nccc12` are 37.2%, 20.8%, 48.1, more than 50 µM and 1.73 µM.
Turning to `O=C(NCCC1CCN(Cc2c(Cl)cccc2Cl)CC1)c1ccc2c(c1)[nH]c1c(NC(=O)C3CC3)nccc12`, the inhibition in series [2] was less than 10%; in series [4] it was 52.1%. Further, the Ratio IC50 in series [3] was more than 56.2. For the same compound, the IC50 at Cholinesterase was more than 50 µM; at Acetylcholinesterase, 0.89 µM.
In the case of `O=C(NCCC1CCN(Cc2cccc([N+](=O)[O-])c2)CC1)c1ccc2c(c1)[nH]c1c(NC(=O)C3CC3)nccc12`, the inhibition in series [2] stood at 21.5%; in series [4], 66.2%. In addition, the Ratio IC50 in series [3] is more than 31.9. For the same compound, the IC50 against Cholinesterase was more than 50 µM; against Acetylcholinesterase it was 1.57 µM.
As to `COc1ccc2c(c1)[nH]c1c(C)nccc12` [HARMINE], the inhibition in series [2] turned out to be 74.1%. For the same compound, the figures for the IC50 against Cholinesterase and against Acetylcholinesterase were 13.6 µM and 10.1 µM, respectively.
In the case of `O=C(NCCC1CCN(Cc2ccc(Cl)cc2)CC1)c1ccc2c(c1)[nH]c1c(NC(=O)C3CC3)nccc12`, the inhibition is less than 10% in series [2] and 84.3% in series [4]. The Ratio IC50 in series [3] was more than 3.35. The Activity result in the series on SH-SY5Y and with L02 was “Toxic” each time. Further, the concentration for half-maximal inhibition (IC50) was more than 50 µM against Cholinesterase and 14.9 µM on Acetylcholinesterase.
`O=C(NCC1CCN(Cc2ccc(F)cc2)CC1)c1ccc2c(c1)[nH]c1c(NC(=O)C3CC3)nccc12`: the inhibition in series [2] turned out to be 39.7%; in series [4], 40.9%. Also, the Ratio IC50 in series [3] is more than 16.2. Moreover, the figures for the IC50 against Cholinesterase and at Acetylcholinesterase were more than 50 µM and 3.08 µM, respectively.
As to `O=C(NC1CCN(Cc2ccccc2F)CC1)c1ccc2c(c1)[nH]c1c(NC(=O)C3CC3)nccc12`, the inhibition in series [2] was determined as 30.8%; in series [4], 84.6%. Moreover, the Ratio IC50 in series [3] was more than 18.9. Also, the IC50 against Cholinesterase is more than 50 µM; on Acetylcholinesterase it was 2.64 µM.
